Key:
[1] = test system: Ercc^−/Δ mouse; test: Delayed onset of frailty in a mouse treated with Compound A; type: in vivo; details: 5 MG/KG of Compound A, n=1; oil control n=3
Procedure: Delayed onset of frailty in an Ercc^−/Δ mouse treated with 5 MG/KG of Compound A

[2] = test system: NF-κB activation; details: (Wen 2006); cited from earlier work
[3] = test system: Ercc1^−/Δ mice; test: Second series: 8K-NBD in an older symptomatic mouse, liver and skeletal muscle histopathology; type: in vivo
Procedure: FIG. 10. Exposure paradigm for pilot study to determine the impact of 8K-NBD on histopathologic changes in progeroid Ercc1^−/Δ mice. 8K-NBD was dissolved in 5% DMSO in PBS and injected i.p.
In a second series of experiments, an older Ercc1^−/Δ mouse, which already had progeroid symptoms, was chronically exposed to 8K-NBD then euthanized at 20 wk of age to determine if 8K-NBD affected histopathologic changes associated with aging (FIG. 10). Liver and skeletal muscle (SKM) were dissected, fixed, sectioned and stained. Tissues were compared to age-matched untreated Ercc1^−/Δ. The liver of Ercc1^−/Δ mice display large polyploid nuclei (FIG. 11A, 10×) characteristic of senescent hepatocytes (Gupta, 2000). […] This is consistent with previous reports that in mouse models of numerous inflammatory myopathies, persistent NF-κB activity is associated with necrotic and regenerative changes (Monici et al., 2003).

[4] = test system: Ercc1^−/Δ mice; test: Third series: double blinded twin study, 8K-NBD versus negative control 8K-mNBD; type: in vivo, mouse
Procedure: FIG. 12. Treatment schedule for third series of experiments; treatment with 8K-NBD or negative control 8k-mNBD.
In a third series of experiments, a different treatment regimen was used (FIG. 12) in which treatment with 8K-NBD or a negative control peptide, 8K-mNBD (having a mutated sequence, […] (SEQ ID NO:7)) was initiated earlier than the above regimens at approximately 5 weeks (8K-NBD or 8K-mNBD, 10 mg/kg) administered intraperitoneally three times per week). This was a double blinded twin study designed to eliminate genetic and environmental variables.
FIG. 13 presents a table showing the phenotypic changes associated with aging in mice treated with 8k-NBD or negative control 8k-mNBD. The overall aging score was improved by 30 percent in 8K-NBD versus 8K-mNBD-treated mice, indicating a significant delay in the onset of age-related symptoms corresponding to over a decade in human life.
FIG. 15A-D presents a comparison of levels of hepatocellular senescence, as measured by staining for p16 protein, in young and senescent wild-type mice as well as Ercc1^−/Δ mice treated with either 8K-NBD or negative control 8K-mNBD according to the regimen of FIG. 12 at the age of 18 weeks.

[5] = test system: Ercc1^−/Δ mice; test: Pilot study: chronic 8K-NBD treatment, onset and severity of progeroid symptoms; type: in vivo, mouse
Procedure: FIG. 6. Exposure paradigm for pilot study to determine the impact of 8K-NBD on quality of life in progeroid Ercc1^−/Δ mice. 8K-NBD was dissolved in 5% DMSO in PBS and injected intraperitoneally. A littermate Ercc1^−/Δ mouse was treated with an equal volume of vehicle only (PBS). The study was concluded at 19 wks when the mouse treated with vehicle only became profoundly ataxic and cachectic, requiring euthanization.
Studies were performed to determine if inhibition of NF-κB activation ameliorates accelerated aging in Ercc1^−/Δ mice. An Ercc1^−/Δ mouse was chronically treated with 8K-NBD peptide as described in FIG. 6. The age at onset of numerous progeroid symptoms were recorded (Table II). Ataxia and priapism, both caused by neurodegeneration (Rolig and McKinnon, 2000), were delayed by 3 wks and 1.5 wks respectively in the mouse treated with 8K-NBD.
Motor strength and coordination were measured weekly in the mice by testing their ability to cross a balance beam (FIG. 9A) and to remain suspended from a wire (FIG. 9B).

[6] = test system: mice; details: cited from earlier work
[7] = 8K-NBD 10 mg/kg i.p. chronically, versus sibling treated with vehicle only
[8] = 8K-NBD versus vehicle-treated mouse

Cl.O=C1Nc2nc(-c3c(O)cccc3OCC3CC3)cc([C@@H]3CCCNC3)c2CO1 [Compound A]
Ataxia (onset) [1]: 19.3 | Dystonia (onset) [1]: 13.7 | Kyphosis (onset) [1]: 14.3 | Trembling (onset) [1]: 12.7 | Wasting (onset) [1]: 19.7

COc1c(Cl)cc2c([nH]c3cnccc32)c1NC(=O)c1cccnc1C [ML120B, (N-6-chloro-7-methoxy-9H-β-carbolin-8-yl)-2-methylnicotinamide]
IC50 [2]: 60 nM

KKKKKKKK-GG-TALDWSWLQTE (SEQ ID NO:2) (KKKKKKKKGGTALDWSWLQTE) [8K-NBD]
Skeletal muscle (SKM) pathology ([3]; at 20 wk of age, untreated Ercc1^−/Δ SKM showed necrosis): devoid of pathologic changes | Hepatocyte cytoplasm to nuclear ratio ([3]; liver at 20 wk of age, versus age-matched untreated Ercc1^−/Δ): much higher | Hepatic architecture ([3]; liver at 20 wk of age, suggestive of liver regeneration): effaced | Improvement of overall aging score ([4]; 8K-NBD versus 8K-mNBD, 10 mg/kg i.p. three times per week from approximately 5 weeks): 30% | Hepatocellular senescence, p16 protein staining pattern ([4]; at the age of 18 weeks): more closely resembles that of a young, healthy mouse | Neurodegeneration, GFAP staining pattern ([4]; at the age of 18 weeks, relative to 8K-mNBD-treated animal): more closely resembles that of the young wild-type mouse | Delay of onset of ataxia [5, 7]: 3 wks | Delay of onset of priapism [5, 7]: 1.5 wks | Body weight maintenance ([5]; 8K-NBD versus untreated and vehicle-treated mice): maintained weight longer | Ambulation and general appearance [5, 8]: improved | Severity of dystonia, trembling and kyphosis [5, 8]: significantly reduced | Delay in onset of symptoms (cachexia, loss of muscle mass and vision) ([5]; 8K-NBD versus vehicle-treated sibling): ≥ 3 wk | Motor strength and coordination (balance beam, suspension from a wire) ([5]; tested weekly, versus untreated mice (n=7)): tended to perform better | Onset of cachexia, loss of muscle mass and vision ([5]; within the 19 wk period of the study, vehicle mouse showed them by 16 wks of age): did not arise

KKKKKKKKGGTALDASALQTE (SEQ ID NO:7) [8K-mNBD, reference compound]
Degree of osteoporotic changes (micro-CT of vertebra) ([4]; at 17 weeks of age, compared with 8K-NBD-treated sibling and wild-type littermate): appears greatest | Hepatocellular senescence, p16 protein staining pattern ([4]; at the age of 18 weeks): more closely resembles the pattern in senescent wild-type hepatocytes

TALDWSWLQTE; SEQ ID NO:1 [NBD peptide]
Toxicity on systemic administration [6]: not toxic
